Experimental data published in patent publication US20110071158A1, “NEW COMPOUNDS” (BOEHRINGER INGELHEIM INTERNATIONAL GMBH, priority 2009, published 2011).

Assays:
Type in all cases: biochemical
PTK2 enzyme [1] = target: T1, PTK2 enzyme (Homo sapiens, UniProt Q05397); test: PTK2 enzyme test, Assay 1 (DELFIA, poly-Glu-Tyr substrate, antibody PT60); settings: Assay 1 (values without *); 1 h pre-incubation, 2% DMSO
T1 construct: purchased Invitrogen PV3832
Outline: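 Active PTK2 (0.01 µg/well) preincubated 1 h at RT with compound (duplicates, 2% DMSO final), then reacted 1 h at RT with poly(Glu,Tyr) 4:1 plus biotinylated poly(Glu,Tyr) and an ATP mix containing 50 μM ATP. EDTA-stopped, streptavidin-captured product detected by Eu-PT60 anti-phosphotyrosine DELFIA; IC50 by variable-Hill sigmoid fit.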

[2] = target: T2, Xenopus laevis Aurora B/INCENP complex (Xenopus laevis, UniProt Q6DE08); test: Aurora-B kinase assay (radioactive enzyme inhibition)
T2 construct: equipped at the N-terminal position with a GST tag (amino acids 60-361); GST (N, cleaved yes); made in house; host or cells: E. coli BL21 (DE3)
T2 sequence (Q6DE08 60-361): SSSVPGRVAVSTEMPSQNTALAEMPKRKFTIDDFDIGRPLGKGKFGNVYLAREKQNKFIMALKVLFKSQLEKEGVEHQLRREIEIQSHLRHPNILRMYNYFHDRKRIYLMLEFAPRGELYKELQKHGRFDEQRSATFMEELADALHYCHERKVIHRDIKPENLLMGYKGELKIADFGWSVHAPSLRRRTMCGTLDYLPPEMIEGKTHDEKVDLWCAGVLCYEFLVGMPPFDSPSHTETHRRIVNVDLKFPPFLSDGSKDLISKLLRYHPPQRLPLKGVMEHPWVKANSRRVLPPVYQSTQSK
T2 sequence (O13024 790-847 partner): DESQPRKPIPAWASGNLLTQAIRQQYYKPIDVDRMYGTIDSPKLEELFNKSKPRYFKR
Description: A radioactive enzyme inhibition assay was developed using E. coli-expressed recombinant Xenopus laevis Aurora B wild-type protein equipped at the N-terminal position with a GST tag (amino acids 60-361) in a complex with Xenopus laevis INCENP (amino acids 790-847), which is obtained from bacteria and purified. In equivalent manner a Xenopus laevis Aurora B mutant (G96V) in a complex with Xenopus laevis INCENP^790-847 may also be used.
The coding sequence for Aurora-B^60-361 from Xenopus laevis is cloned into a modified version of pGEX-6T (Amersham Biotech) via BamHI and SalI cutting sites. The vector contains two cloning cassettes which are separated by a ribosomal binding site, allowing bi-cistronic expression. In this configuration Xenopus laevis Aurora B is expressed by the first cassette, and the Xenopus laevis INCENP^790-847 is expressed by the second cassette. The resulting vector is pAUB-IN^847.
First of all the E. coli strain BL21 (DE3) is co-transformed with pUBS520 helper plasmid and pAUB-IN^847, after which protein expression is induced using 0.3 mM IPTG at an OD600 of 0.45-0.7. The expression is then continued for approx. 12-16 h at 23-25° C. with agitation.
The bacteria are then removed by centrifuging and the pellet is lysed in lysis buffer (50 mM Tris/Cl pH 7.6, 300 mM NaCl, 1 mM DTT, 1 mM EDTA, 5% glycerol, Roche Complete Protease Inhibitor tablets) using ultrasound, using 20-30 mL lysis buffer per litre of E. coli culture. The lysed material is freed from debris by centrifugation (12000 rpm, 45-60 min, JA20 rotor). The supernatant is incubated with […] of equilibrated GST Sepharose Fast Flow (Amersham Biosciences) per litre of E. coli culture for 4-5 h at 4° C. Then the column material is washed with 30 volumes of lysis buffer and then equilibrated with 30 volumes of cleavage buffer (50 mM Tris/Cl pH 7.6, 150 mM NaCl, 1 mM DTT, 1 mM EDTA). To cleave the GST tag from Aurora B, 10 units of Prescission Protease (Amersham Biosciences) are used per milligram of substrate and the mixture is incubated for 16 h at 4° C. The supernatant which contains the cleavage product is loaded onto a 6 mL Resource Q column (Amersham Biosciences) equilibrated with ion exchange buffer (50 mM Tris/Cl pH 7.6, 150 mM NaCl, 1 mM DTT, 1 mM EDTA). The Aurora B/INCENP complex is caught as it flows through, then concentrated and loaded onto a Superdex 200 size exclusion chromatography (SEC) column equilibrated with SEC buffer (10 mM Tris/Cl pH 7.6, 150 mM NaCl, 1 mM DTT, 1 mM EDTA). Fractions which contain the AuroraB/INCENP complex are collected and concentrated using Vivaspin concentrators (molecular weight exclusion 3000-5000 Da) to a final concentration of 12 mg/mL. Aliquots (e.g. 240 ng/μL) for kinase assays are transferred from this stock solution into freezing buffer (50 mM Tris/Cl pH 8.0, 150 mM NaCl, 0.1 mM EDTA, 0.03% Brij-35, 10% glycerol, 1 mM DTT) and stored at −80° C.
Test substances are placed in a polypropylene dish (96 wells, Greiner #655 201), in order to cover a concentration frame of 10 μM-0.0001 μM. The final concentration of DMSO in the assay is 5%. 30 μL of protein mix (50 mM Tris/Cl pH 7.5, 25 mM MgCl2, 25 mM NaCl, 167 μM ATP, 10 ng Xenopus laevis Aurora B/INCENP complex in freezing buffer) are pipetted into the 10 μl of test substance provided in 25% DMSO and this is incubated for 15 min at RT. Then 10 μL of peptide mix (100 mM Tris/Cl pH 7.5, 50 mM MgCl2, 50 mM NaCl, 5 μM NaF, 5 μM DTT, 1 μCi gamma-P33-ATP [Amersham], 50 μM substrate peptide [biotin-EPLERRLSLVPDS or multimers thereof, or biotin-EPLERRLSLVPKM or multimers thereof, or biotin-[…]]) are added. The reaction is incubated for 75 min (ambient temperature) and stopped by the addition of 180 μL of 6.4% trichloroacetic acid and incubated for 20 min on ice. […]

PTK2 enzyme [3] = target: T1, PTK2 enzyme; test: PTK2 enzyme test, Assay 2 (DELFIA, poly-Glu-Tyr substrate, antibody PT66); settings: Assay 2 (values marked *); 1 h pre-incubation, 0.5% DMSO
Description: This test uses active PTK2 enzyme (Invitrogen Code PV3832) and poly-Glu-Tyr (4:1, Sigma P-0275) as the kinase substrate. The kinase activity is detected by means of the phosphorylation of the substrate in a DELFIA™ assay. The phosphorylated substrate is detected with the europium-labelled phosphotyrosine antibody PT66 (Perkin Elmer, No.: AD0040).
In order to determine concentration-activity curves with PTK2-inhibitors the compounds are serially diluted first of all in 10% DMSO/H2O and then in kinase dilution buffer (20 mM TRIS/HCl pH 7.5, 0.1 mM EDTA, 0.1 mM EGTA, 0.286 mM sodium orthovanadate, 10% glycerol with the addition of freshly prepared BSA (fraction V, 1 mg/mL) and DTT (1 mM)) and 10 μL of each dilution are dispensed per well in a 96-well microtitre plate (clear U-shaped base plate, Greiner No. 650101) (the inhibitors are tested in duplicates) and mixed with 10 μL/well of PTK2 kinase (0.01 μg/well). PTK2 kinase is diluted accordingly beforehand with kinase dilution buffer. The diluted PTK2 inhibitor and the PTK2 kinase are pre-incubated for 1 h at RT and shaken at 500 revolutions per min. Then 10 μL/well poly-Glu-Tyr substrate (25 μg/well poly-Glu-Tyr, 0.05 μg/well biotinylated poly-Glu-Tyr dissolved in 250 mM TRIS/HCl pH 7.5, 9 mM DTT) are added. The reaction is started by the addition of 20 μL of ATP Mix (30 mM TRIS/HCl pH 7.5, 0.02% Brij, 0.2 mM sodium orthovanadate, 10 mM magnesium acetate, 0.1 mM EGTA, 1× phosphatase inhibitor cocktail 1 (Sigma, No.: P2850), 50 μM ATP (Sigma, No.: A3377; 15 mM stock solution))—the final concentration of DMSO is 0.5%. After 1 h kinase reaction (the plates are shaken at 500 rpm), the reaction is stopped by the addition of 12 μL/well of 100 mM EDTA, pH 8, and shaken for a further 5 min at RT (500 U/min). 55 μL of the reaction mixture are transferred into a streptavidin plate (Strepta Well High Bind (transparent, 96-well) made by Roche, No.: 11989685001) and incubated for 1 h at RT (shaking at 500 rpm). Then the microtitre plate is washed five times with 200 μL/well D-PBS (Invitrogen, No. 14190). 100 μL of a solution containing DELFIA Eu-N1 Anti-Phosphotyrosine PT66 antibody (Perkin Elmer, No.: AD0040, diluted 1:9000 in DELFIA test buffer (Perkin Elmer, No.: 1244-111)) is then added and it is incubated for 1 h at RT (shaking at 500 rpm). Then the plate is washed five times with 200 μL/well DELFIA washing buffer (Perkin Elmer, No.: 1244-114), 200 μL/well strengthening solution (Perkin Elmer, No.: 1244-105) is added and the whole is incubated for 10 min at RT (shaking at 300 rpm).
The time-delayed europium fluorescence is then measured in a microtitre plate reader (Victor, Perkin Elmer). The positive control consists of wells that contain solvent (0.5% DMSO in test buffer) and display uninhibited kinase activity. Wells that contain test buffer instead of enzyme act as a control for the background kinase activity.
The IC50 values are determined from concentration-activity analyses by iterative calculation using a sigmoid curve analysis algorithm (FIFTY, based on Graph PAD Prism Version 3.03) with a variable Hill coefficient.

T1 sequence (Q05397 whole entry): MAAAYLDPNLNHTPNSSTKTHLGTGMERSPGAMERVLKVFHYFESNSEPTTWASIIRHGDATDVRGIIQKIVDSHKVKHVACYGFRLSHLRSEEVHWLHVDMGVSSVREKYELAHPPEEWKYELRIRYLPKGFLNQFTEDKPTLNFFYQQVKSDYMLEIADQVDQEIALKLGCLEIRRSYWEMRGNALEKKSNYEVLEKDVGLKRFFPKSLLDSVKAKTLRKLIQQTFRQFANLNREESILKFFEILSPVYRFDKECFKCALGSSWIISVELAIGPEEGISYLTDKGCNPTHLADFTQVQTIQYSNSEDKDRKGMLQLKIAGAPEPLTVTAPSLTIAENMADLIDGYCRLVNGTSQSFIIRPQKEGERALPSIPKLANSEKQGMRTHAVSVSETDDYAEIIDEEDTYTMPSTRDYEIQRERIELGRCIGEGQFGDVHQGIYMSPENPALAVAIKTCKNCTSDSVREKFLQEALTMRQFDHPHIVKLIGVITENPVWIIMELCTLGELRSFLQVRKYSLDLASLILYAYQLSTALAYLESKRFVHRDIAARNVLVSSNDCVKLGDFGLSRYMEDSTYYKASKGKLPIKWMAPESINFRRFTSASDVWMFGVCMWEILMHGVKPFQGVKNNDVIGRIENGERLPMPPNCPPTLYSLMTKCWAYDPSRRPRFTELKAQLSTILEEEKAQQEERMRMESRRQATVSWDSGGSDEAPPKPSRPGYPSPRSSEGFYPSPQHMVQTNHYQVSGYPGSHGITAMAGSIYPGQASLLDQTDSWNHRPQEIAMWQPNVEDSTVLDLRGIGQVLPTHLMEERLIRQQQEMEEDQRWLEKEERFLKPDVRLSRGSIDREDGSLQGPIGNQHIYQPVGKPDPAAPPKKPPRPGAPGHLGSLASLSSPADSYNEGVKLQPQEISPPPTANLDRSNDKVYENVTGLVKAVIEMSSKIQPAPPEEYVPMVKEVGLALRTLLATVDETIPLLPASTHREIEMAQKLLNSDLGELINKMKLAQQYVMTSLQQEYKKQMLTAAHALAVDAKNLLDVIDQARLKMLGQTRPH

COc1cc(C(=O)NC2CCN(C)CC2)ccc1Nc1ncc(C(F)(F)F)c(N[C@@H]2CCCC[C@H]2N(C)S(C)(=O)=O)n1 [Example I-90, 4-{4-[(1R,2R)-2-(methanesulphonyl-methyl-amino)-cyclohexylamino]-5-trifluoromethyl-pyrimidin-2-ylamino}-3-methoxy-N-(1-methyl-piperidin-4-yl)-benzamide]
IC50 (PTK2 enzyme [1]): 0.8 nM | IC50 [2]: 280 nM

CCN([C@@H]1CCCC[C@H]1Nc1nc(Nc2ccc(C(=O)NC3CCN(C)CC3)cc2OC)ncc1C(F)(F)F)S(C)(=O)=O [Example I-91]
IC50 (PTK2 enzyme [1]): 1 nM | IC50 [2]: 264 nM

COc1cc(C(=O)NC2CCN(C)CC2)c(C)cc1Nc1ncc(C(F)(F)F)c(N[C@@H]2CCCC[C@H]2N(C)S(C)(=O)=O)n1 [Example I-93]
IC50 (PTK2 enzyme [1]): 0.86 nM | IC50 [2]: 4040 nM

COc1cc(C(=O)NC2CCN(C)CC2)ccc1Nc1ncc(C(F)(F)F)c(N[C@@H]2CCC[C@H]2N(C)S(C)(=O)=O)n1 [Example I-124, 4-{4-[(1R,2R)-2-(methanesulphonyl-methyl-amino)-cyclopentylamino]-5-trifluoromethyl-pyrimidin-2-ylamino}-3-methoxy-N-(1-methyl-piperidin-4-yl)-benzamide]
IC50 (PTK2 enzyme [1]): 0.81 nM | IC50 [2]: 241 nM

COc1cc(C(=O)NC2CCN(C)CC2)ccc1Nc1ncc(C(F)(F)F)c(N[C@@H]2CCCC[C@H]2NS(C)(=O)=O)n1 [Example I-125, 4-[4-((1R,2R)-2-methanesulphonylamino-cyclohexylamino)-5-trifluoromethyl-pyrimidin-2-ylamino]-3-methoxy-N-(1-methyl-piperidin-4-yl)-benzamide]
IC50 (PTK2 enzyme [1]): 0.93 nM | IC50 [2]: 257 nM

COCCN1CCC(NC(=O)c2cc(OC)c(Nc3ncc(C(F)(F)F)c(N[C@@H]4CCC[C@H]4N(C)S(C)(=O)=O)n3)cc2F)CC1 [Example I-130]
IC50 (PTK2 enzyme [3]): 0.24 nM

COc1cc(C(=O)NN2CCN(C)CC2)c(F)cc1Nc1ncc(C(F)(F)F)c(N[C@@H]2CCC[C@H]2N(C)S(C)(=O)=O)n1 [Example I-136]
IC50 (PTK2 enzyme [3]): 0.28 nM

COc1cc(N2CCN(C)CC2)c(Cl)cc1Nc1ncc(C(F)(F)F)c(N[C@@H]2CCC[C@H]2N(C)S(C)(=O)=O)n1 [Example I-139]
IC50 (PTK2 enzyme [3]): 0.49 nM

COc1cc(C(=O)NC2CCN(C)CC2)ccc1Nc1ncc(C(F)(F)F)c(N[C@@H]2CC=CC[C@H]2N(C)S(C)(=O)=O)n1 [Example I-151]
IC50 (PTK2 enzyme [3]): 0.67 nM

COc1cc(NC(C)=O)c(F)cc1Nc1ncc(C(F)(F)F)c(N[C@@H]2CCCC[C@H]2N(C)S(C)(=O)=O)n1 [Example I-159]
IC50 (PTK2 enzyme [3]): 0.9 nM

CCc1cc(Nc2ncc(C(F)(F)F)c(N[C@@H]3CCCC[C@H]3N(C)S(C)(=O)=O)n2)c(OC)cc1N1CCN(C)CC1 [Example I-160]
IC50 (PTK2 enzyme [3]): 0.71 nM

COc1ccc(C(=O)N(C)C2CCN(C)CC2)cc1Nc1ncc(C(F)(F)F)c(N[C@@H]2CCC[C@H]2N(C)S(C)(=O)=O)n1 [Example I-176]
IC50 (PTK2 enzyme [3]): 0.44 nM

COc1ccc(C(=O)NC2CCN(C)CC2)cc1Nc1ncc(Cl)c(N[C@@H]2CCC[C@H]2N(C)S(C)(=O)=O)n1 [Example I-179]
IC50 (PTK2 enzyme [3]): 0.46 nM

COc1ccc(C(=O)NC2CCN(C)CC2)cc1Nc1ncc(C(F)(F)F)c(N[C@@H]2CCCC[C@H]2NC(C)=O)n1 [Example I-180]
IC50 (PTK2 enzyme [3]): 0.43 nM

COCCNC(=O)c1ccc(OC)c(Nc2ncc(C(F)(F)F)c(N[C@@H]3CCCC[C@H]3NS(C)(=O)=O)n2)c1 [Example I-181]
IC50 (PTK2 enzyme [3]): 0.43 nM

COc1cc(N2CCN(C(C)(C)C)CC2)c(C)cc1Nc1ncc(Cl)c(N[C@@H]2CCCC[C@H]2N(C)S(C)(=O)=O)n1 [Example I-184]
IC50 (PTK2 enzyme [3]): 1 nM

COc1cc(N2CCN(C(C)(C)C)CC2)c(Cl)cc1Nc1ncc(Cl)c(N[C@@H]2CCCC[C@H]2N(C)S(C)(=O)=O)n1 [Example I-185]
IC50 (PTK2 enzyme [3]): 1 nM

COc1ccc(NC(=O)[C@@H]2CCCN2C)cc1Nc1ncc(Cl)c(N[C@@H]2CCCC[C@H]2N(C)S(C)(=O)=O)n1 [Example I-191]
IC50 (PTK2 enzyme [3]): 10 nM

COc1ccc(NC(=O)C2CCN(C)CC2)cc1Nc1ncc(Cl)c(N[C@@H]2CCCC[C@H]2N(C)S(C)(=O)=O)n1 [Example I-192]
IC50 (PTK2 enzyme [3]): 2 nM

COc1cc(F)c(C(=O)NC2CCOCC2)cc1Nc1ncc(C(F)(F)F)c(N[C@@H]2CCCC[C@H]2NS(C)(=O)=O)n1 [Example I-193]
IC50 (PTK2 enzyme [3]): 0.72 nM

CNC(=O)c1cc(Nc2ncc(C(F)(F)F)c(N[C@@H]3CCCC[C@H]3NS(C)(=O)=O)n2)c(OC)cc1F [Example I-194]
IC50 (PTK2 enzyme [3]): 0.71 nM
